Measurements from EP2292237A1, “Sigma ligands for the prevention or treatment of pain induced by chemotherapy” (Laboratorios del. Dr. Esteve, S.A., priority 2009, dated 2011).
“Also recorded” adds a separate entry of the source. Like-named read-outs stand apart in the source and are kept apart here.

Key:
patients = details: cited from earlier work
CD-1 mice [1] = experiment: Acetone test: development of paclitaxel-induced cold allodynia, co-administration with paclitaxel or paclitaxel vehicle; format: in vivo; details: for duration of acetone-induced paw licking/biting: 64 mg/kg s.c. 30 min before each i.p. paclitaxel dose (2 mg/kg), versus paclitaxel + saline; for duration of acetone-induced paw licking/biting / days with statistically significant differences in duration of acetone-induced licking/biting versus paclitaxel + saline: days 1 to 5; for days with statistically significant differences in duration of acetone-induced licking/biting versus paclitaxel + saline: 64 mg/kg s.c. 30 min before each i.p. paclitaxel dose, days after the first dose of paclitaxel; for response of the animals to acetone (duration of hind paw licking/biting): co-administration days 1 to 5 of paclitaxel-vehicle i.p. and compound 64 mg/kg s.c., versus paclitaxel-vehicle + saline, hydrochloride, 64 mg/kg; for development of cold allodynia induced by paclitaxel: co-administration of paclitaxel (2 mg/kg, i.p.) and compound (64 mg/kg, s.c.)
CD-1 mice [2] = experiment: Acetone test: expression of paclitaxel-induced cold allodynia, single s.c. injection on day 10; format: in vivo; details: for expression of cold allodynia induced by paclitaxel: acute treatment 32-64 mg/kg s.c. on day 10 in mice pretreated with paclitaxel; for response to acetone of control (paclitaxel-vehicle treated) animals: acute treatment 32 or 64 mg/kg s.c. on day 10; for duration of hind paw licking/biting (acetone test) versus saline: single s.c. injection 64 mg/kg in mice pretreated with paclitaxel-vehicle (Figs. 7 and 8)
Protocol: Experiments were performed in CD-1 mice (Charles River, U.S.A.) with at least n = 10/experimental group. Mice weighing 25-30 g were used. The animals were housed in colony cages with free access to food and water prior to the experiments. They were maintained in temperature- and light-controlled rooms (22 ± 1 °C, lights on at 08.00 h and off at 20.00 h, air replacement every 20 min). Testing took place during the light phase (from 9.00 h to 15.00 h).
Therefore, the cumulative dose was 10 mg/kg per mouse.
Compounds 1a and 1b were dissolved in normal saline just before administration and applied at doses of 32 or 64 mg/kg subcutaneously.
The response of the animals to the different nociceptive stimuli was tested subsequently during 2-4 weeks, depending on the test (see below), without any additional treatment. Each animal was tested only in one nociceptive model. […] Each animal received only one dose of compound 1 a or 1b and was tested in only one nociceptive model.
Procedure for assessment of cold allodynia. Cold allodynia was tested as previously described by Smith et al. in Life Sci., 2004, 74(21), 2593-604, by gently touching the plantar skin of the hind paws with an acetone bubble formed with a syringe connected to a thin polyethylene tube. The mice were housed and habituated for 30 min in transparent plastic boxes (7 x 7 x 13 cm) with a floor made of wire mesh. After the adaptation period, acetone was applied alternately three times to each paw at intervals of 30 s, and the duration and frequency of licking or biting were recorded. A small mirror was placed behind the chambers to allow clear observation of the paws. The time spent licking or biting the paw was recorded by a stopwatch and represented as the cumulative time of licking/biting in the six measurements. Since licking persisting more than 10 s in the experiments was very unusual, a cut-off time of 10 s was used for each trial. […]
On that day, duration of hind paw licking/biting was recorded immediately before (time 0) and at several times (60, 120 and 180 min) after the injection of compound 1 a, compound 1 b or saline.
On that day, duration of hind paw licking/biting was recorded immediately before (time 0) and at several times (60, 120 and 180 min) after the injection of compound 1a, compound 1b or saline.

Structure (SMILES) | duration of acetone-induced paw licking/biting (CD-1 mice [1]) | days with statistically significant differences in duration of acetone-induced licking/biting versus paclitaxel + saline (CD-1 mice [1]) | response of the animals to acetone (duration of hind paw licking/biting) (CD-1 mice [1]) | development of cold allodynia induced by paclitaxel (CD-1 mice [1]) | response to acetone of control (paclitaxel-vehicle treated) animals (CD-1 mice [2]) | duration of hind paw licking/biting (acetone test) versus saline (CD-1 mice [2]) | also measured
CC(=O)O[C@H]1C(=O)[C@@]2(C)[C@H]([C@H](OC(=O)c3ccccc3)[C@]3(O)C[C@H](OC(=O)[C@H](O)[C@@H](NC(=O)c4ccccc4)c4ccccc4)C(C)=C1C3(C)C)[C@]1(OC(C)=O)CO[C@@H]1C[C@@H]2O [paclitaxel, Paclitaxel, reference compound] | – | – | – | – | – | – | progressing to dose-limiting neurotoxicity in % of patients (patients; paclitaxel dose 135 mg/m^2): 0%; progressing to dose-limiting neurotoxicity in % of patients (patients; paclitaxel dose 175 mg/m^2): 21%; progressing to dose-limiting neurotoxicity in % of patients (patients; paclitaxel dose 250-300 mg/m^2): 71%; duration of paw licking/biting in the acetone test (CD-1 mice [1]; paclitaxel (i.p., 2 mg/kg) and saline (s.c.) co-administered days 1 to 5, began on day 7, maximum on day 14): significant increase; control animals treated with paclitaxel that did not show cold allodynia (CD-1 mice [2]; 'non-responders': less than 2 s licking/biting on days 7 and 10 after paclitaxel): Around 33%; cold allodynia (increase in the duration of acetone-induced paw licking/biting) (CD-1 mice [2]; paclitaxel i.p. once daily days 1 to 5, evaluated 10 days after the first dose): developed cold allodynia
Cl.c1ccc(-n2ncc3c2CCC[C@@H]3CCN2CCOCC2)cc1 [compound 1b, (R)-4,5,6,7-tetrahydro-4-(2-(morpholin-4-yl)ethyl)-1-phenyl-1H-indazole hydrochloride] | reduced | at days 7, 14 and 21 | did not significantly modify; also recorded: No statistically significant differences | inhibited | did not affect | No statistically significant differences | expression of cold allodynia induced by paclitaxel (CD-1 mice [2]): inhibited
Cl.c1ccc(-n2ncc3c2CCC[C@H]3CCN2CCOCC2)cc1 [compound 1a, (S)-4,5,6,7-tetrahydro-4-(2-(morpholin-4-yl)ethyl)-1-phenyl-1H-indazole hydrochloride] | reduced | from day 7 to day 21 | did not significantly modify; also recorded: No statistically significant differences | inhibited | did not affect | No statistically significant differences | times at which the effect was statistically significant in comparison with the saline-treated group (CD-1 mice [2]; acute treatment 32-64 mg/kg s.c. on day 10, time after administration of the drug): at all times evaluated from 60 to 180 min; expression of cold allodynia induced by paclitaxel (CD-1 mice [2]; hydrochloride): dose-dependently inhibited
O=C(O)C(=O)O.c1ccc(-n2ncc3c2CCCC3CCN2CCOCC2)cc1 (stereo not shown) [compound 2, 4,5,6,7-tetrahydro-4-(2-(morpholin-4-yl)ethyl)-1-phenyl-1H-indazole oxalate] | – | – | – | – | – | – | duration of acetone-induced licking/biting (CD-1 mice [2]; acute injection 32-64 mg/kg s.c., 10 days after the first dose of paclitaxel): dose-dependently reduced
